# According to patent US5439928A, “Aromatase inhibiting 4(5)-imidazoles” (Orion-yhtyma Oy, priority 1993, dated 1995):
# pIC50: −log10 of the molar value.
# System: DMBA-induced rat mammary adenocarcinomas
# Test: Anti-tumour effect in vivo against DMBA-induced rat mammary adenocarcinomas
# Settings: 3 mg/kg, daily for five weeks, female rats; control 3
# Protocol: The anti-tumour effect was investigated in vivo against DMBA-induced rat mammary adenocarcinomas by the following method. Mammary adenocarcinoma was induced with DMBA in 50±2 days old female rats. Treatment with the compound under test was started after palpable tumours had appeared. Tumour size and amount of tumours were evaluated once a week. Tumour sizes in the control group, treated with solvent, were compared with the test groups. Daily administration schedule was employed for five weeks and animals were sacrificed. The change in tumour sizes was evaluated. Results were evaluated as changes in the sizes of tumours and divided into three groups, namely increasing, stable and decreasing sizes of tumours.
row,Compound,Number of tumours decreasing
1,"c1ccc(C(CCCc2c[nH]cn2)c2ccccc2)cc1 [Compound 9a, 4-(4,4-diphenylbutyl)-1H-imidazole]",2

# Same assay, conditions: 3 mg/kg, daily for five weeks, female rats; control 21
row,Compound,Number of tumours stable
1,"c1ccc(C(CCCc2c[nH]cn2)c2ccccc2)cc1 [Compound 9a, 4-(4,4-diphenylbutyl)-1H-imidazole]",14

# Same assay, conditions: 3 mg/kg, daily for five weeks, female rats; control 42
row,Compound,Number of tumours increasing
1,"c1ccc(C(CCCc2c[nH]cn2)c2ccccc2)cc1 [Compound 9a, 4-(4,4-diphenylbutyl)-1H-imidazole]",37

# Same assay, conditions: 30 mg/kg, daily for five weeks, female rats; control 3
row,Compound,Number of tumours decreasing
1,"c1ccc(C(CCCc2c[nH]cn2)c2ccccc2)cc1 [Compound 9a, 4-(4,4-diphenylbutyl)-1H-imidazole]",21

# Same assay, conditions: 30 mg/kg, daily for five weeks, female rats; control 21
row,Compound,Number of tumours stable
1,"c1ccc(C(CCCc2c[nH]cn2)c2ccccc2)cc1 [Compound 9a, 4-(4,4-diphenylbutyl)-1H-imidazole]",3

# Same assay, conditions: 30 mg/kg, daily for five weeks, female rats; control 42
row,Compound,Number of tumours increasing
1,"c1ccc(C(CCCc2c[nH]cn2)c2ccccc2)cc1 [Compound 9a, 4-(4,4-diphenylbutyl)-1H-imidazole]",15

# Target: desmolase (CSCC)
# Test: Cholesterol side chain cleavage (CSCC, desmolase) inhibition, mitochondrial fraction from human placenta or bovine adrenals
# Assay type: biochemical
# Settings: substrate 5 μM, 30 min, 37° C., read-out: IC-50 CSCC (desmolase)
row,Compound,pIC50
1,"COc1ccc(C(CCCc2c[nH]cn2)c2ccccc2)cc1 (centres unmarked) [Compound 11a, 4-[4-(4-methoxyphenyl)-4-phenylbutyl]-1H-imidazole]",3.72
2,"COc1ccc(CCCCC(c2ccc(F)cc2)c2c[nH]cn2)cc1 (centres unmarked) [Compound 12c, 4-[1-(4-fluorophenyl)-5-(4-methoxyphenyl)pentyl]-1H-imidazole]",4.65
3,"COc1ccc(C(CCCc2c[nH]cn2)c2ccc(OC)cc2)cc1 [Compound 12a, 4-[4,4-bis(4-methoxyphenyl)butyl]-1H-imidazole]",4.34
4,"Fc1ccc(C(CCCCc2ccccc2)c2c[nH]cn2)cc1 (centres unmarked) [Compound 1c, 4-[1-(4-fluorophenyl)-5-phenylpentyl]-1H-imidazole]",4.72
5,"Cc1cccc(C(CCCc2c[nH]cn2)c2ccccc2)c1 (centres unmarked) [Compound 4a, 4-(4-(3-methylphenyl)-4-phenylbutyl]-1H-imidazole]",5.12
6,"Cc1cccc(CCCCC(c2ccc(F)cc2)c2c[nH]cn2)c1 (centres unmarked) [Compound 3c, 4-[1-(4-fluorophenyl)-5-(3-methylphenyl)pentyl]-1H-imidazole]",4.24
7,"Cc1cccc(C(CCCc2c[nH]cn2)c2cc(C)cc(C)c2)c1 (centres unmarked) [Compound 16a, 4-[4-(3,5-dimethylphenyl)-4-(3-methylphenyl)butyl]-1H-imidazole]",4.02
8,"Cc1cccc(C(CCCc2cncn2Cc2ccccc2)c2ccccc2)c1 (centres unmarked) [Compound 3a, 1-benzyl-5-[4-(3-methylphenyl)-4-phenylbutyl]-1H-imidazole]",4.42
9,"N#Cc1ccc(C(CCc2ccc(F)cc2)Cc2c[nH]cn2)cc1 (centres unmarked) [Compound 19c, 4-[2-(4-cyanophenyl)-4-(4-fluorophenyl)butyl]-1H-imidazole]",5.18
10,"C(=Cc1c[nH]cn1)CC(c1ccccc1)c1ccccc1 [Compound 22a, 4-(4,4-diphenyl-1-butenyl)-1H-imidazole]",3.78
11,"Cc1ccc(C(CCCc2c[nH]cn2)c2ccccc2)cc1 (centres unmarked) [Compound 1a, 4-[4-(4-methylphenyl)-4-phenylbutyl]-1H-imidazole]",4.02
12,"Fc1ccc(C(CCCc2c[nH]cn2)c2ccc(F)cc2)cc1 [Compound 23a, 4-[4,4-bis(4-fluorophenyl)butyl]-1H-imidazole]",3.76
13,"c1ccc(C(CCCc2c[nH]cn2)c2ccccc2)cc1 [Compound 9a, 4-(4,4-diphenylbutyl)-1H-imidazole]",3.49
14,"O=[N+]([O-])c1ccc(C(CCCc2c[nH]cn2)c2ccc([N+](=O)[O-])cc2)cc1 [Compound 24a, 4-[4,4-bis(4-nitrophenyl)butyl]-1H-imidazole]",4.43
15,"Fc1ccc(C(CCc2ccccc2)c2c[nH]cn2)cc1 (centres unmarked) [Compound 9c, 4-[1-(4-fluorophenyl)-3-phenylpropyl]-1H-imidazole]",4.66
16,"c1ccc(CC(CCCc2c[nH]cn2)c2ccccc2)cc1 (centres unmarked) [Compound 8a, 4-(4,5-diphenylpentyl)-1H-imidazole]",4.57
17,"Cc1ccc(C(CCCc2c[nH]cn2)c2ccccc2)cc1C (centres unmarked) [Compound 15a, 4-[4-(3,4-dimethylphenyl)-4-phenylbutyl]-1H-imidazole]",4.41
18,"Cc1ccccc1C(CCCc1cncn1Cc1ccccc1)c1ccccc1 (centres unmarked) [Compound 6a, 1-benzyl-5-[4-(2-methylphenyl)-4-phenylbutyl]-1H-imidazole]",4.49
19,"Cc1cccc(C(CCCc2c[nH]cn2)c2cccc(C)c2)c1 [Compound 13a, 4-[4,4-bis(3-methylphenyl)butyl]-1H-imidazole]",4.32
20,"Cc1ccc(CCCCC(c2ccc(F)cc2)c2c[nH]cn2)cc1 (centres unmarked) [Compound 4c, 4-[1-(4-fluorophenyl)-5-(4-methylphenyl)pentyl]-1H-imidazole]",3.77
21,"Fc1ccc(C(CCCc2c[nH]cn2)c2ccccc2)cc1 (centres unmarked) [Compound 21a, 4-[4-(4-fluorophenyl)-4-phenylbutyl]-1H-imidazole]",4.10

row,Compound,pIC50
1,"Fc1ccc(CCC(c2ccc(F)cc2)c2c[nH]cn2)cc1 (centres unmarked) [Compound 14c, 4-[1,3-bis(4-fluorophenyl)propyl]-1H-imidazole]",4.66
2,"Cc1cc(C)cc(CCCCC(c2ccc(F)cc2)c2c[nH]cn2)c1 (centres unmarked) [Compound 5c, 4-[5-(3,5-dimethylphenyl)-1-(4-fluorophenyl)-pentyl]-1H-imidazole]",4.10
3,"Fc1ccc(CCCC(c2ccc(F)cc2)c2c[nH]cn2)cc1 (centres unmarked) [Compound 15c, 4-[1,4-bis(4-fluorophenyl)butyl]-1H-imidazole]",4.54
4,"Cc1ccc(C(CCCc2c[nH]cn2)c2ccc(C)cc2)cc1 [Compound 17a, 4-[4,4-bis(4-methylphenyl)butyl]-1H-imidazole]",3.96
5,"c1ccc(C(CCCCc2c[nH]cn2)c2ccccc2)cc1 [Compound 18a, 4-(5,5-diphenylpentyl)-1H-imidazole]",4.17
6,"Cc1ccc(C(CCCc2cncn2Cc2ccccc2)c2ccccc2)cc1 (centres unmarked) [Compound 2a, 1-benzyl-5-[4-(4-methylphenyl)-4-phenylbutyl]-1H-imidazole]",4.30
7,"c1ccc(CCC(Cc2c[nH]cn2)c2ccccc2)cc1 (centres unmarked) [Compound 16c, 4-(2,4-diphenylbutyl)-1H-imidazole]",4.92
8,"Cc1cccc(C)c1CCCCC(c1ccc(F)cc1)c1c[nH]cn1 (centres unmarked) [Compound 13c, 4-[1-(4-fluorophenyl)-5-(2,6-dimethylphenyl)-pentyl]-1H-imidazole]",4.51
9,"Cc1ccccc1CCCCC(c1ccc(F)cc1)c1c[nH]cn1 (centres unmarked) [Compound 2c, 4-[1-(4-fluorophenyl)-5-(2-methylphenyl)pentyl]-1H-imidazole]",4.80
10,"COc1cccc(CCCCC(c2ccc(F)cc2)c2c[nH]cn2)c1 (centres unmarked) [Compound 11c, 4-[1-(4-fluorophenyl)-5-(3-methoxyphenyl)pentyl]-1H-imidazole]",4.92
11,"Cc1ccccc1C(CCCc1c[nH]cn1)c1ccccc1 (centres unmarked) [Compound 5a, 4-[4-(2-methylphenyl)-4-phenylbutyl]-1H-imidazole]",4.54
12,"Fc1ccc(C(CCCc2ccccc2)c2c[nH]cn2)cc1 (centres unmarked) [Compound 10c, 4-[1-(4-fluorophenyl)-4-phenylbutyl]-1H-imidazole]",4.51
13,"c1ccc(CCC(c2ccccc2)c2c[nH]cn2)cc1 (centres unmarked) [Compound 7c, 4-(1,3-diphenylpropyl)-1H-imidazole]",5.12
14,"Fc1ccc(CCC(Cc2c[nH]cn2)c2ccc(F)cc2)cc1 (centres unmarked) [Compound 18c, 4-[2,4-bis(4-fluorophenyl)butyl]-1H-imidazole]",4.70
15,"Fc1ccccc1C(CCCc1c[nH]cn1)c1ccccc1 (centres unmarked) [Compound 20a, 4-[4-(2-fluorophenyl)-4-phenylbutyl]-1H-imidazole]",4.42
16,"CCc1ccc(C(CCCc2c[nH]cn2)c2ccccc2)cc1 (centres unmarked) [Compound 26a, 4-[4-(4-ethylphenyl)-4-phenylbutyl]-1H-imidazole]",4.19
17,"Cc1cc(C)cc(C(CCCc2c[nH]cn2)c2ccccc2)c1 (centres unmarked) [Compound 14a, 4-[4-(3,5-dimethylphenyl)-4-phenylbutyl]-1H-imidazole]",4.19
18,"Fc1ccc(C(CCc2ccccc2)Cc2c[nH]cn2)cc1 (centres unmarked) [Compound 17c, 4-[2-(4-fluorophenyl)-4-phenylbutyl]-1H-imidazole]",4.55
19,"Nc1ccc(C(CCCc2c[nH]cn2)c2ccc(N)cc2)cc1 [Compound 25a, 4-[4,4-bis(4-aminophenyl)butyl]-1H-imidazole]",3.68
20,"c1ccc(C(CCCCCc2c[nH]cn2)c2ccccc2)cc1 [Compound 19a, 4-(6,6-diphenylhexyl)-1H-imidazole]",4.21
